This passage reports IC50 results from ChEMBL document CHEMBL1130632, “Polycyclic aromatic compounds as anticancer agents: synthesis and biological evaluation of some chrysene derivatives” (Bioorg Med Chem Lett, 1998).

In brackets after ≈: the same amount, converted by molar mass.

By IC50 is commonly meant the concentration that gives 50% inhibition. Read a low IC50 as greater potency in that assay.

What all share (type): functional, cell-based
One assay relates to P388. Nature of the assay: Compound was evaluated for the growth inhibition of p388/0 leukemia cell line. The note with it: Mus musculus.
The subject of the next assay is MCF7. In words: Compound was evaluated for the growth inhibition of MCF-7 breast cell line. The conditions noted are these: Homo sapiens.
The next assay relates to HT-29. In words: Compound was evaluated for the growth inhibition of HT-29 colon cell line. The note with it: Homo sapiens.
The next assay concerns SK-MEL-2. In words: Compound was evaluated for the growth inhibition of […] melanoma cell line. The note with it: Homo sapiens.
The next assay has as its system BRO melanoma cell line. In words: Compound was evaluated for the growth inhibition of BRO melanoma cell line. The note with it: Homo sapiens.

As for `O=C(CCC(=O)N1CCCCC1)Nc1cc2c3ccccc3ccc2c2ccccc12`, the concentration for half-maximal inhibition (IC50) in the assay on P388 turned out to be 12.2 µg/mL (≈ 29.7 µM); in the assay on MCF7, 11.5 µg/mL (≈ 28 µM); in the assay on HT-29 it was 10.1 µg/mL (≈ 24.6 µM); in the assay on SK-MEL-2, 15.9 µg/mL (≈ 38.7 µM); in the assay on BRO melanoma cell line, 15 µg/mL (≈ 36.5 µM).
With `CN1CCN(C(=O)CCC(=O)Nc2ccc3c(ccc4c5ccccc5ccc34)c2)CC1`, the IC50 in the assay with P388 was found to be 7.9 µg/mL (≈ 18.6 µM); in the assay on MCF7, 9.8 µg/mL (≈ 23 µM); in the assay with HT-29, 4.8 µg/mL (≈ 11.3 µM); with SK-MEL-2, 9.2 µg/mL (≈ 21.6 µM); in the assay on BRO melanoma cell line, 9.5 µg/mL (≈ 22.3 µM).
Taken in the same sequence, the figures for `O=C(CCC(=O)N1CCCCC1)Nc1ccc2c(ccc3c4ccccc4ccc23)c1` were 10.5 µg/mL (≈ 25.6 µM), 10.2 µg/mL (≈ 24.8 µM), 8.5 µg/mL (≈ 20.7 µM), 13.3 µg/mL (≈ 32.4 µM) and 17.3 µg/mL (≈ 42.1 µM).
As for `CN1CCN(C(=O)CCC(=O)Nc2cc3c4ccccc4ccc3c3ccccc23)CC1`, the IC50 with P388 worked out at 9.8 µg/mL (≈ 23 µM); with MCF7, 11.2 µg/mL (≈ 26.3 µM); in the assay with HT-29 it was 6.6 µg/mL (≈ 15.5 µM); in the assay on SK-MEL-2, 10 µg/mL (≈ 23.5 µM); in the assay with BRO melanoma cell line, 11.8 µg/mL (≈ 27.7 µM).
For `c1ccc2c(c1)ccc1c3ccc(NCCCCN4CCCCC4)cc3ccc21` the same measures were 2.2 µg/mL (≈ 5.75 µM), 3 µg/mL (≈ 7.84 µM), 2.3 µg/mL (≈ 6.01 µM), 3.8 µg/mL (≈ 9.93 µM) and 4.5 µg/mL (≈ 11.8 µM).
Taken in the same sequence, the figures for `CN1CCN(CCCCNc2ccc3c(ccc4c5ccccc5ccc34)c2)CC1` were 4.7 µg/mL (≈ 11.8 µM), 12.1 µg/mL (≈ 30.4 µM), 9.3 µg/mL (≈ 23.4 µM), 8.7 µg/mL (≈ 21.9 µM) and 8.8 µg/mL (≈ 22.1 µM).
For `COc1cccc2c1C(=O)c1c(O)c3c(c(O)c1C2=O)C[C@@](O)(C(=O)CO)C[C@@H]3O[C@H]1C[C@H](N)[C@H](O)[C@H](C)O1` [DOXORUBICIN], the IC50 with P388 turned out to be 0.8 µg/mL (≈ 1.47 µM); in the assay on MCF7 it was 0.4 µg/mL (≈ 0.736 µM); in the assay with HT-29, 0.5 µg/mL (≈ 0.92 µM); in the assay with SK-MEL-2 it was 0.1 µg/mL (≈ 0.184 µM); with BRO melanoma cell line, 0.2 µg/mL (≈ 0.368 µM).
